Molecular target: T1, Recombinant human IKKβ (residues 1-737) (Homo sapiens, UniProt O14920)
T1 construct: Recombinant human IKKβ (residues 1-737); GST (C); made in house
T1 sequence (O14920 1-737): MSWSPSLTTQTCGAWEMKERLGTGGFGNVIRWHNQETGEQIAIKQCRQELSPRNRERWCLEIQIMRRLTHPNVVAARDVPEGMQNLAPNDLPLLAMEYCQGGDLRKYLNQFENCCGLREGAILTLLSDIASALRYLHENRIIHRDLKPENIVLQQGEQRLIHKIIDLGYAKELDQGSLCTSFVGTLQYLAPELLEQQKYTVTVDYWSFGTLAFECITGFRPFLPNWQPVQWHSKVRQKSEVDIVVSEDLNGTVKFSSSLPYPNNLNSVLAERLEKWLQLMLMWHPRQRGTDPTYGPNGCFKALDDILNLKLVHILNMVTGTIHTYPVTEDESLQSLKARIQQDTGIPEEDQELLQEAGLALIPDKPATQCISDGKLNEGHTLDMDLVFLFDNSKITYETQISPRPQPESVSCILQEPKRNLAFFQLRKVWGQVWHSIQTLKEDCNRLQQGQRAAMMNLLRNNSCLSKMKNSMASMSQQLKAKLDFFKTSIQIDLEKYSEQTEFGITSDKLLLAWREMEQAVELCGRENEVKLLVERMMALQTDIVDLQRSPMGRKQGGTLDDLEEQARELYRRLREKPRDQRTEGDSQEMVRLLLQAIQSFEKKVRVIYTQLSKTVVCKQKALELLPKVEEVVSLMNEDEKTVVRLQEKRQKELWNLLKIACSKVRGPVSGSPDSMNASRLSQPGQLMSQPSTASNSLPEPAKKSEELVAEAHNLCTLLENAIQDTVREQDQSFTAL
Experiment: IKK2 Assay (TR-FRET)
Assay type: biochemical
Settings: IKK2 5 nM, GST-IκBα substrate 25 nM, ATP 1 μM, 30 minutes at room temperature, read-out: pIC50 against IKK2 (converted)
Protocol: Recombinant human IKKβ (residues 1-737) was expressed in baculovirus as a C-terminal GST-tagged fusion protein, and its activity was assessed using a time-resolved fluorescence resonance energy transfer (TR-FRET) assay. Briefly, IKK2 (5 nM final) diluted in assay buffer (50 mM HEPES, 10 mM MgCl2, 1 mM CHAPS pH 7.4 with 1 mM DTT and 0.01% w/v BSA) was added to wells containing various concentrations of compound or DMSO vehicle (3% final). The reaction was initiated by the addition of GST-IκBα substrate (25 nM final)/ATP (1 μM final), in a total volume of 30 μl. The reaction was incubated for 30 minutes at room temperature, then terminated by the addition of 15 μl of 50 mM EDTA. Detection reagent (15 μl) in buffer (100 mM HEPES pH 7.4, 150 mM NaCl and 0.1% w/v BSA) containing antiphosphoserine-IκBα-32/36 monoclonal antibody 12C2 (Cell Signalling Technology, Beverly Mass., USA) labelled with W-1024 europium chelate (Wallac OY, Turku, Finland), and an APC-labelled anti-GST antibody (Prozyme, San Leandro, Calif., USA) was added and the reaction was further incubated for 60 minutes at room temperature. The degree of phosphorylation of GST-IκBα was measured using a Packard Discovery plate reader (Perkin-Elmer Life Sciences, Pangbourne, UK) as a ratio of specific 665 nm energy transfer signal to reference europium 620 nm signal.

| SMILES | IC50 |
| --- | --- |
| NC(=O)c1nc(-c2ccccc2)cc2cc[nH]c12 [Example 14, 5-phenyl-1H-pyrrolo[2,3-c]pyridine-7-carboxamide] | ≤ 10 µM |
| CC(C)(C)OC(=O)N1CC=C(c2c[nH]c3c(C(N)=O)nc(-c4ccccc4)cc23)CC1 [Example 5, 1,1-dimethylethyl 4-[7-(aminocarbonyl)-5-phenyl-1H-pyrrolo[2,3-c]pyridin-3-yl]-3,6-dihydro-1(2H)-pyridinecarboxylate] | ≤ 10 µM |
| CCS(=O)(=O)N1CCC(c2c[nH]c3c(C(N)=O)nc(-c4ccccc4)cc23)CC1 [Example 8, 3-[1-(ethylsulfonyl)-4-piperidinyl]-5-phenyl-1H-pyrrolo[2,3-c]pyridine-7-carboxamide] | ≤ 10 µM |
| NC(=O)c1nc(-c2ccccc2)cc2c(C3CCNCC3)c[nH]c12 [Example 7, 5-phenyl-3-(4-piperidinyl)-1H-pyrrolo[2,3-c]pyridine-7-carboxamide] | ≤ 10 µM |
| CC(C)(C)OC(=O)N1CCC(c2c[nH]c3c(C(N)=O)nc(-c4ccccc4)cc23)CC1 [Example 6, 1,1-dimethylethyl 4-[7-(aminocarbonyl)-5-phenyl-1H-pyrrolo[2,3-c]pyridin-3-yl]-1-piperidinecarboxylate] | ≤ 10 µM |

From patent US20080242685A1, “Chemical Compounds” (Smithkline Beecham Corporation, priority 2005, published 2008)
